The assay addresses T1, α4 β1 integrin (VLA-4) (Homo sapiens, UniProt P05556+P13612).
T1 construct: Jurkat cells (ATCC #TIB-153) which express high levels of α4 β1 integrin (VLA-4); host or cells: Jurkat cells
Briefly: Monovalent FACS Assay for α4 β1 Integrin/VCAM-1 Binding (inhibition of soluble VCAM-1 binding to Jurkat cells). Conditions: Jurkat cells, rsVCAM-1, IC50 reflects 50% receptor occupancy, read-out: IC50 (FACS). As to the method: The foregoing compounds were tested for VLA-4 binding activity using the following monvalent FACS assay. The IC50 for a compound reflects 50% receptor occupancy.
Monovalent FACS Assay for α4 β1 Integrin/VCAM-1 Binding
The VLA-4 binding activity of exemplary compounds was measured by measuring the inhibition of the interaction of soluble VCAM-1 with Jurkat cells (ATCC #TIB-153) which express high levels of α4 β1 integrin (VLA-4) using a modification of the fluorescence activated cell sorter (FACS) assay described by Yednock, et al., J. Biol. Chem., 1995, 270:28740. VCAM-1 interacts with the cell surface in an α4 β1 integrin-dependent fashion.
Jurkat cells were grown in RPMI 1640 supplemented with 10% fetal bovine serum, penicillin, streptomycin and glutamine as described by Yednock, supra.
Recombinant soluble VCAM-1 (rsVCAM-1) was produced in a baculovirus expression system as a chimeric fusion protein containing the seven immunoglobulin domains of VCAM-1 on the N-terminus and the human IgG1 heavy chain constant region on the C-terminus as described by Yednock, supra. Supernatant containing approximately 10 ug/ml rsVCAM-1 was collected after 72 hours and used in the assay without purification.
Jurkat cells (approximately 10^7 cells/ml) were treated with 1.5 mM MnCl2 and 5 μg/ml 15/7 for 30 minutes on ice to activate β1 integrin. Mn^+2 activates the receptor to enhance ligand binding, and 15/7 is a monoclonal antibody that recognizes an activated/ligand occupied conformation of α4 β1 integrin and locks the molecule into this conformation thereby stabilizing the VCAM-1/α4 β1 integrin interaction. Yednock, et al., supra. Antibodies similar to 15/7 have been prepared and may be used in this assay. For example, see, Luque, et al., 1996, J. Bio. Chem., 271: 11067.
Aliquots of 25 μl cells were incubated for 30 minutes at room temperature with compounds using a standard 5-point serial dilution. 15 μl of rsVCAM-Fc-containing baculovirus supernatant was added to the cells and incubated for 30 minutes on ice as described in Yednock, et al., supra.
Cells were washed twice and resuspended in 100 μl of a 1:100 dilution of FITC-conjugated goat anti-human IgG to detect the human Ig-VCAM-1 construct diluted in assay media containing 2.5% mouse serum to block potential cross-reactivity with cell surface bound 15/7. Cells were incubated on ice for 30 minutes in the dark. Cells were washed twice and analyzed with a standard FACS analysis as described in Yednock, et al., supra. on a FACScan flow cytometer (Becton Dickinson, Mountain View, Calif.).

Like-named read-outs stand apart in the source and are kept apart here.

One may read the IC50 as the concentration that inhibits the measured activity by half.

T1 sequence (P13612 34-1032): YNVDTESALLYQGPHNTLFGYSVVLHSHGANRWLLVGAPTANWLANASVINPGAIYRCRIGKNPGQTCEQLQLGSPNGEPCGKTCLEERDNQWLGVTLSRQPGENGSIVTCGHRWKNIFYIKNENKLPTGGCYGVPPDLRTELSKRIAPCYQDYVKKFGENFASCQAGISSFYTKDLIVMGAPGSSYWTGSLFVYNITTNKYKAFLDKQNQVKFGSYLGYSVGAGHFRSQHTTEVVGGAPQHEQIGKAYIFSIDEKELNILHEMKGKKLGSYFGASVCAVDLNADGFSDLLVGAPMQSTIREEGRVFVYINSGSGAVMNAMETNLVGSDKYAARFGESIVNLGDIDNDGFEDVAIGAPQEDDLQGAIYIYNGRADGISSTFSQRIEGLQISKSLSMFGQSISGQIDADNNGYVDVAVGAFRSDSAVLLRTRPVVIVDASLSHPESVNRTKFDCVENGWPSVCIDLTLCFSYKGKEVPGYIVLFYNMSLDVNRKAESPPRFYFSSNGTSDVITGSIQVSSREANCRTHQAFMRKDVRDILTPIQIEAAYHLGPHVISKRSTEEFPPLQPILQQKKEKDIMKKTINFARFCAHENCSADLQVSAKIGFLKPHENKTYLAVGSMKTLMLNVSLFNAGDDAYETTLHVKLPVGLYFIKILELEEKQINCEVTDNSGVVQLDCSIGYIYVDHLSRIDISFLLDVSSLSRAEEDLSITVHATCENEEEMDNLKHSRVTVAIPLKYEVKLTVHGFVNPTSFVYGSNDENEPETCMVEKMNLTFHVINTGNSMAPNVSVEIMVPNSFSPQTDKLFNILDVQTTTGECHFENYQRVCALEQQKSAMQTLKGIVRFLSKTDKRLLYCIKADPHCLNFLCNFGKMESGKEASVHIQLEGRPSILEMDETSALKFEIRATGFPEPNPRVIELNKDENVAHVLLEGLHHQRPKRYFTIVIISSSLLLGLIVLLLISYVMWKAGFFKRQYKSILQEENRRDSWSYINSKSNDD
T1 sequence (P05556 21-798): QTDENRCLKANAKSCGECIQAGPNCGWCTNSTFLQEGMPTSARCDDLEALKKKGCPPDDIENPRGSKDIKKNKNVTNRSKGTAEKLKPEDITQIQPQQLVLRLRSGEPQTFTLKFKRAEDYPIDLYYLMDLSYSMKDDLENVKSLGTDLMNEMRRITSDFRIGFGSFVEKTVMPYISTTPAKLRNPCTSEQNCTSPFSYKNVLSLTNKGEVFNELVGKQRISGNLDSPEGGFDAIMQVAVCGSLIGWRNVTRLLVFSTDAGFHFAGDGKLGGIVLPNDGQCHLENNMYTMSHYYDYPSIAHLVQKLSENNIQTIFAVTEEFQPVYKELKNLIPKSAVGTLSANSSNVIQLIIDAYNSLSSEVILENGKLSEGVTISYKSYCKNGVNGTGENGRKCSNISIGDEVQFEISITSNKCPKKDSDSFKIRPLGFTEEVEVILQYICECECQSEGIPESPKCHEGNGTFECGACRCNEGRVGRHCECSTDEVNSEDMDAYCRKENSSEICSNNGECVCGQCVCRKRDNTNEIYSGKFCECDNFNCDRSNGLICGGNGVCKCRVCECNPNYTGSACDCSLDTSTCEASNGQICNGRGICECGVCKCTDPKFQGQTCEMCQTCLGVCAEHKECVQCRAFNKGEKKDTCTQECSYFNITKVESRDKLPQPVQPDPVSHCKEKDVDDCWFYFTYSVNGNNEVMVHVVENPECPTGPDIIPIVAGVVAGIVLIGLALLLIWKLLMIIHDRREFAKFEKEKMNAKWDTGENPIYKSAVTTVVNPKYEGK

Consider `CN(C)C(=O)Oc1ccc(C[C@H](Nc2c(N(C)CCc3ccncc3)c(=O)c2=O)C(=O)O)cc1` [Example 63, (2S)-3-(4-Dimethylcarbamoyloxy-phenyl)-2-{2-[methyl-(2-pyridin-4-yl-ethyl)-amino]-3,4-dioxo-cyclobut-1-enylamino}-propionic acid], for which the IC50 (unit nM) is 1.6 nM.

For `CCCCCCN(CCCCCC)c1c(N[C@@H](Cc2ccccc2)C(=O)O)c(=O)c1=O` [Example 15, (S)-2-(2-Dihexylamino-3,4-dioxo-cyclobut-1-enylamino)-3-phenyl-propionic acid], under “unit μM”, the IC50 was 1500 nM.

On to `CCCCCCN(CCCCCC)c1c(N[C@@H](Cc2ccc(OCCCN(C)C)cc2)C(=O)O)c(=O)c1=O` [Example 32, N-(2-Dihexylamino-3,4-dioxo-cyclobut-1-enylamino)-O-(3-dimethylamino-propyl)-L-tyrosine], for which the IC50 (unit nM) worked out at 12 nM.

As for `CN(CCc1ccncc1)c1c(N[C@@H](Cc2ccc(NC(=O)c3cccnc3)cc2)C(=O)O)c(=O)c1=O` [Example 46], under “unit nM”, the IC50 is 40 nM.

Consider `O=C(O)[C@H](Cc1ccccc1)Nc1c(NCCc2c[nH]c3ccccc23)c(=O)c1=O` [Example 7, 2-{2-[2-(1H-Indol-3-yl)-ethylamino]-3,4-dioxo-cyclobut-1-enylamino}-L-phenylalanine], for which the IC50 (unit μM) was 52000 nM.

`O=C(O)[C@H](Cc1ccccc1)Nc1c(N(Cc2ccccc2)Cc2ccccc2)c(=O)c1=O` [Example 13, (2-Dibenzylamino-3,4-dioxo-cyclobut-1-enylamino)-L-phenylalanine]: the IC50 (unit μM) was found to be 4400 nM.

Consider `CCCCCCN(CCCCCC)c1c(N[C@@H](Cc2ccc(OC(=O)N3CCN(C)CC3)cc2)C(=O)O)c(=O)c1=O` [Example 70], for which the IC50 (unit nM) is 0.2 nM.

Turning to `CCCCCCN(CCCCCC)c1c(N[C@@H](Cc2cn(Cc3ccccc3)cn2)C(=O)O)c(=O)c1=O` [Example 29, (S)-3-(1-Benzyl-1H-imidazol-4-yl)-2-(2-dihexylamino-3,4-dioxo-cyclobut-1-enylamino)-propionic acid], where the note is “unit nM”, the IC50 was 631 nM.

Regarding `CCCCCCN(Cc1ccc(N(C)C)cc1)c1c(N[C@@H](Cc2ccccc2)C(=O)O)c(=O)c1=O` [Example 19, (S)-2-{2-[(4-Dimethylamino-benzyl)-hexyl-amino]-3,4-dioxo-cyclobut-1-enylamino}-3-phenyl-propionic acid], the IC50 (unit μM) stood at 13000 nM.

Consider `O=C(O)[C@H](Cc1ccccc1)Nc1c(NCc2cccnc2)c(=O)c1=O` [Example 9, {3,4-Dioxo-2-[(pyridin-3-ylmethyl)-amino]-cyclobut-1-enyl}-L-phenylalanine], for which, under “unit μM”, the IC50 worked out at 116000 nM.

On to `CN(Cc1cccnc1)c1c(N[C@@H](Cc2ccc(NC(=O)c3ccncc3)cc2)C(=O)O)c(=O)c1=O` [Example 41, N-[2-(Methyl-pyridin-3-ylmethyl-amino)-3,4-dioxo-cyclobut-1-enyl]-4-[(pyridine-4-carbonyl)-amino]-L-phenylalanine], for which, for the setting “unit nM”, the IC50 amounted to 26 nM.

As to `O=C(O)[C@H](Cc1ccccc1)Nc1c(N2CCN(c3ccccc3)CC2)c(=O)c1=O` [Example 21, N-[3,4-Dioxo-2-(4-phenyl-piperazin-1-yl)-cyclobut-1-en-1-yl]-L-phenylalanine], the IC50 (unit μM) is 86000 nM.

Consider `CCCCCCN(CCCCCC)c1c(N[C@@H](Cc2ccc(NC(=O)c3ccccc3)cc2)C(=O)O)c(=O)c1=O` [Example 26, (S)-3-(4-Benzoylamino-phenyl)-2-(2-dihexylamino-3,4-dioxo-cyclobut-1-enylamino)-propionic acid], for which, where the note is “unit nM”, the IC50 was determined as 150 nM.

For the compound `CN(Cc1cccnc1)c1c(N[C@@H](Cc2ccc(NC(=O)c3cccnc3)cc2)C(=O)O)c(=O)c1=O` [Example 48, N-[2-(Methyl-pyridin-3-ylmethyl-amino)-3,4-dioxo-cyclobut-1-enyl]-4-[(pyridine-3-carbonyl)-amino]-L-phenylalanine], the IC50 (unit nM) was determined as 160 nM.

Consider `CCCCCCN(CCCCCC)c1c(N[C@@H](Cc2ccc(NC(=O)c3cccnc3)cc2)C(=O)O)c(=O)c1=O` [Example 44, N-[2-(Dihexylamino)-3,4-dioxo-1-cyclobuten-1-yl]-4-[(3-pyridinylcarbonyl)amino]-L-phenylalanine], for which the IC50 (unit nM) was 6.5 nM.

Take `O=C(O)[C@H](Cc1ccccc1)Nc1c(NCc2ccccc2)c(=O)c1=O` [Example 3, [2-(Benzylamino)-3,4-dioxo-cyclobut-1-enyl]-L-phenylalanine]: the IC50 (unit μM) is 58000 nM.
